Reference: ChEMBL document CHEMBL1275314, “Synthesis and biological evaluation of some 1,3,4-oxadiazole derivatives” (Eur J Med Chem, 2010)
Values after ≈ are worked out from the molar mass of the structure shown.

Legend:
Assay type in all cases: functional
Pseudomonas aeruginosa = experiment: Antibacterial activity against Pseudomonas aeruginosa ATCC 27853 after 3 to 4 days by serial plate dilution method
Klebsiella pneumoniae = experiment: Antibacterial activity against Klebsiella pneumoniae after 3 to 4 days by serial plate dilution method
Aspergillus flavus = experiment: Antifungal activity against Aspergillus flavus NCIM 524 after 3 to 4 days by serial plate dilution method
Aspergillus fumigatus = experiment: Antifungal activity against Aspergillus fumigatus NCIM 902 after 3 to 4 days by serial plate dilution method
Talaromyces marneffei = experiment: Antifungal activity against Penicillium marneffei after 3 to 4 days by serial plate dilution method
[1] = system: Trichophyton mentagrophytes; experiment: Antifungal activity against Trichophyton mentagrophytes after 3 to 4 days by serial plate dilution method
Rattus norvegicus = experiment: Antiinflammatory activity in Wister albino rat assessed as inhibition of carrageenan-induced paw edema at 10 mg/kg, po administered 30 mins before carrageenan treatment measured after 3 hrs by plethysmometric analysis
Escherichia coli = experiment: Antibacterial activity against Escherichia coli ATCC 25922 after 3 to 4 days by serial plate dilution method
Staphylococcus aureus = experiment: Antibacterial activity against Staphylococcus aureus ATCC 25923 after 3 to 4 days by serial plate dilution method
Mus musculus [2] = experiment: Analgesic activity in Swiss albino mouse assessed as inhibition of heat-induced paw licking or jumping behavior at 10 mg/kg, po administered after 15 sec of heat challenge measured after 30 mins post dose by Eddy's hot plate method; settings: 0.5 h
Mus musculus [3] = experiment: Analgesic activity in Swiss albino mouse assessed as inhibition of heat-induced paw licking or jumping behavior at 10 mg/kg, po administered after 15 sec of heat challenge measured after 60 mins post dose by Eddy's hot plate method; settings: 1 h
Mus musculus [4] = experiment: Analgesic activity in Swiss albino mouse assessed as inhibition of heat-induced paw licking or jumping behavior at 10 mg/kg, po administered after 15 sec of heat challenge measured after 90 mins post dose by Eddy's hot plate method; settings: 1.5 h

Compound	MIC (Pseudomonas aeruginosa) [µg/mL]	MIC (Klebsiella pneumoniae) [µg/mL]	MIC (Aspergillus flavus) [µg/mL]	MIC (Aspergillus fumigatus) [µg/mL]	MIC (Talaromyces marneffei) [µg/mL]	MIC [1] [µg/mL]	MIC (Escherichia coli) [µg/mL]	MIC (Staphylococcus aureus) [µg/mL]	inhibition in vivo at 10 mg/kg (Rattus norvegicus) [%]	inhibition in vivo at 10 mg/kg (Mus musculus [2]) [%]	inhibition in vivo at 10 mg/kg (Mus musculus [3]) [%]	inhibition in vivo at 10 mg/kg (Mus musculus [4]) [%]
CC(C)Cc1ccc(C(C)c2nn(CN3CCN(c4cccc(Cl)c4)CC3)c(=S)o2)cc1 (configuration not stated)	25 (≈ 53.1 µM)	25 (≈ 53.1 µM)	6.25 (≈ 13.3 µM)	6.25 (≈ 13.3 µM)	6.25 (≈ 13.3 µM)	6.25 (≈ 13.3 µM)	25 (≈ 53.1 µM)	25 (≈ 53.1 µM)	64.3	–	–	–
CSc1ccc(Cc2nn(CN3CCN(c4ccc([N+](=O)[O-])cc4)CC3)c(=S)o2)cc1	6.25 (≈ 13.7 µM)	6.25 (≈ 13.7 µM)	25 (≈ 54.6 µM)	25 (≈ 54.6 µM)	25 (≈ 54.6 µM)	25 (≈ 54.6 µM)	6.25 (≈ 13.7 µM)	6.25 (≈ 13.7 µM)	56.6	–	–	–
CSc1ccc(Cc2nn(CN3CCN(c4ccc(F)cc4)CC3)c(=S)o2)cc1	6.25 (≈ 14.5 µM)	6.25 (≈ 14.5 µM)	6.25 (≈ 14.5 µM)	6.25 (≈ 14.5 µM)	6.25 (≈ 14.5 µM)	6.25 (≈ 14.5 µM)	6.25 (≈ 14.5 µM)	6.25 (≈ 14.5 µM)	68.7	–	–	–
CC(C)Cc1ccc(C(C)c2nn(CN3CCNCC3)c(=S)o2)cc1 (configuration not stated)	12.5 (≈ 34.7 µM)	12.5 (≈ 34.7 µM)	12.5 (≈ 34.7 µM)	12.5 (≈ 34.7 µM)	12.5 (≈ 34.7 µM)	12.5 (≈ 34.7 µM)	12.5 (≈ 34.7 µM)	12.5 (≈ 34.7 µM)	–	–	–	–
CC(C)Cc1ccc(C(C)c2nn(CN3CCN(C)CC3)c(=S)o2)cc1 (configuration not stated)	12.5 (≈ 33.4 µM)	12.5 (≈ 33.4 µM)	25 (≈ 66.7 µM)	25 (≈ 66.7 µM)	25 (≈ 66.7 µM)	25 (≈ 66.7 µM)	12.5 (≈ 33.4 µM)	12.5 (≈ 33.4 µM)	–	–	–	–
CCOC(=O)C1CCN(Cn2nc(C(C)c3ccc(CC(C)C)cc3)oc2=S)CC1 (configuration not stated)	12.5 (≈ 29 µM)	12.5 (≈ 29 µM)	12.5 (≈ 29 µM)	12.5 (≈ 29 µM)	12.5 (≈ 29 µM)	12.5 (≈ 29 µM)	12.5 (≈ 29 µM)	12.5 (≈ 29 µM)	73.9	30.6	41.8	55.2
CSc1ccc(Cc2nn(CN3CCN(C)CC3)c(=S)o2)cc1	12.5 (≈ 35.7 µM)	12.5 (≈ 35.7 µM)	25 (≈ 71.3 µM)	25 (≈ 71.3 µM)	25 (≈ 71.3 µM)	25 (≈ 71.3 µM)	12.5 (≈ 35.7 µM)	12.5 (≈ 35.7 µM)	–	–	–	–
Cc1cc(C2CCCCC2)n(O)c(=O)c1.NCCO [CICLOPIROX OLAMINE]	–	–	6.25	6.25	1.56	6.25	–	–	–	–	–	–
O=C(O)c1cn(C2CC2)c2cc(N3CCNCC3)c(F)cc2c1=O [CIPROFLOXACIN]	–	6.25 (≈ 18.9 µM)	–	–	–	–	–	1.56 (≈ 4.71 µM)	–	–	–	–
O=C(O)Cc1ccccc1Nc1c(Cl)cccc1Cl [DICLOFENAC SODIUM]	–	–	–	–	–	–	–	–	73.7	29.2	40.8	53.6

Now from value to compound, other results behind:

MIC (Pseudomonas aeruginosa) [µg/mL]	MIC (Klebsiella pneumoniae) [µg/mL]	MIC (Aspergillus flavus) [µg/mL]	MIC (Aspergillus fumigatus) [µg/mL]	MIC (Talaromyces marneffei) [µg/mL]	MIC [1] [µg/mL]	MIC (Escherichia coli) [µg/mL]	MIC (Staphylococcus aureus) [µg/mL]	Compound	inhibition in vivo at 10 mg/kg (Rattus norvegicus) [%]	inhibition in vivo at 10 mg/kg (Mus musculus [2]) [%]	inhibition in vivo at 10 mg/kg (Mus musculus [3]) [%]	inhibition in vivo at 10 mg/kg (Mus musculus [4]) [%]
12.5 (≈ 26 µM)	12.5 (≈ 26 µM)	25 (≈ 51.9 µM)	25 (≈ 51.9 µM)	25 (≈ 51.9 µM)	25 (≈ 51.9 µM)	12.5 (≈ 26 µM)	12.5 (≈ 26 µM)	CC(C)Cc1ccc(C(C)c2nn(CN3CCN(c4ccc([N+](=O)[O-])cc4)CC3)c(=S)o2)cc1 (configuration not stated)	75.1	30.6	36.2	44.8
6.25 (≈ 13.7 µM)	6.25 (≈ 13.7 µM)	6.25 (≈ 13.7 µM)	6.25 (≈ 13.7 µM)	6.25 (≈ 13.7 µM)	6.25 (≈ 13.7 µM)	6.25 (≈ 13.7 µM)	6.25 (≈ 13.7 µM)	CC(C)Cc1ccc(C(C)c2nn(CN3CCN(c4ccc(F)cc4)CC3)c(=S)o2)cc1 (configuration not stated)	75.4	32.6	45	57
25 (≈ 52 µM)	25 (≈ 52 µM)	12.5 (≈ 26 µM)	12.5 (≈ 26 µM)	12.5 (≈ 26 µM)	12.5 (≈ 26 µM)	25 (≈ 52 µM)	25 (≈ 52 µM)	CCOc1ccccc1N1CCN(Cn2nc(C(C)c3ccc(CC(C)C)cc3)oc2=S)CC1 (configuration not stated)	44.6	–	–	–
12.5 (≈ 28.2 µM)	12.5 (≈ 28.2 µM)	12.5 (≈ 28.2 µM)	12.5 (≈ 28.2 µM)	12.5 (≈ 28.2 µM)	12.5 (≈ 28.2 µM)	12.5 (≈ 28.2 µM)	12.5 (≈ 28.2 µM)	COc1ccc(N2CCN(Cn3nc(Cc4ccc(SC)cc4)oc3=S)CC2)cc1	33.7	–	–	–
6.25 (≈ 14 µM)	6.25 (≈ 14 µM)	6.25 (≈ 14 µM)	6.25 (≈ 14 µM)	6.25 (≈ 14 µM)	6.25 (≈ 14 µM)	6.25 (≈ 14 µM)	6.25 (≈ 14 µM)	CSc1ccc(Cc2nn(CN3CCN(c4ccc(Cl)cc4)CC3)c(=S)o2)cc1	71.1	–	–	–
12.5 (≈ 28 µM)	12.5 (≈ 28 µM)	12.5 (≈ 28 µM)	12.5 (≈ 28 µM)	12.5 (≈ 28 µM)	12.5 (≈ 28 µM)	12.5 (≈ 28 µM)	12.5 (≈ 28 µM)	CSc1ccc(Cc2nn(CN3CCN(c4cccc(Cl)c4)CC3)c(=S)o2)cc1	74.7	25.6	32	41.2
12.5 (≈ 27.4 µM)	12.5 (≈ 27.4 µM)	12.5 (≈ 27.4 µM)	12.5 (≈ 27.4 µM)	12.5 (≈ 27.4 µM)	12.5 (≈ 27.4 µM)	12.5 (≈ 27.4 µM)	12.5 (≈ 27.4 µM)	CCOc1ccccc1N1CCN(Cn2nc(Cc3ccc(SC)cc3)oc2=S)CC1	42.5	–	–	–
25 (≈ 69.5 µM)	25 (≈ 69.5 µM)	25 (≈ 69.5 µM)	25 (≈ 69.5 µM)	25 (≈ 69.5 µM)	25 (≈ 69.5 µM)	25 (≈ 69.5 µM)	25 (≈ 69.5 µM)	CC(C)Cc1ccc(C(C)c2nn(CN3CCCCC3)c(=S)o2)cc1 (configuration not stated)	–	–	–	–
6.25 (≈ 17.3 µM)	6.25 (≈ 17.3 µM)	6.25 (≈ 17.3 µM)	6.25 (≈ 17.3 µM)	6.25 (≈ 17.3 µM)	6.25 (≈ 17.3 µM)	6.25 (≈ 17.3 µM)	6.25 (≈ 17.3 µM)	CC(C)Cc1ccc(C(C)c2nn(CN3CCOCC3)c(=S)o2)cc1 (configuration not stated)	69.5	–	–	–
12.5 (≈ 30.7 µM)	12.5 (≈ 30.7 µM)	12.5 (≈ 30.7 µM)	12.5 (≈ 30.7 µM)	12.5 (≈ 30.7 µM)	12.5 (≈ 30.7 µM)	12.5 (≈ 30.7 µM)	12.5 (≈ 30.7 µM)	CCOC(=O)C1CCN(Cn2nc(Cc3ccc(SC)cc3)oc2=S)CC1	57.4	–	–	–
12.5 (≈ 37 µM)	12.5 (≈ 37 µM)	6.25 (≈ 18.5 µM)	6.25 (≈ 18.5 µM)	6.25 (≈ 18.5 µM)	6.25 (≈ 18.5 µM)	12.5 (≈ 37 µM)	12.5 (≈ 37 µM)	CSc1ccc(Cc2nn(CN3CCOCC3)c(=S)o2)cc1	35.2	–	–	–
12.5 (≈ 37.1 µM)	12.5 (≈ 37.1 µM)	12.5 (≈ 37.1 µM)	12.5 (≈ 37.1 µM)	12.5 (≈ 37.1 µM)	12.5 (≈ 37.1 µM)	12.5 (≈ 37.1 µM)	12.5 (≈ 37.1 µM)	CSc1ccc(Cc2nn(CN3CCNCC3)c(=S)o2)cc1	–	–	–	–
12.5 (≈ 37.3 µM)	12.5 (≈ 37.3 µM)	25 (≈ 74.5 µM)	25 (≈ 74.5 µM)	25 (≈ 74.5 µM)	25 (≈ 74.5 µM)	12.5 (≈ 37.3 µM)	12.5 (≈ 37.3 µM)	CSc1ccc(Cc2nn(CN3CCCCC3)c(=S)o2)cc1	–	–	–	–
6.25 (≈ 13.4 µM)	6.25 (≈ 13.4 µM)	12.5 (≈ 26.8 µM)	12.5 (≈ 26.8 µM)	12.5 (≈ 26.8 µM)	12.5 (≈ 26.8 µM)	6.25 (≈ 13.4 µM)	6.25 (≈ 13.4 µM)	COc1ccc(N2CCN(Cn3nc(C(C)c4ccc(CC(C)C)cc4)oc3=S)CC2)cc1 (configuration not stated)	42.6	–	–	–
12.5 (≈ 26.5 µM)	12.5 (≈ 26.5 µM)	12.5 (≈ 26.5 µM)	12.5 (≈ 26.5 µM)	12.5 (≈ 26.5 µM)	12.5 (≈ 26.5 µM)	12.5 (≈ 26.5 µM)	12.5 (≈ 26.5 µM)	CC(C)Cc1ccc(C(C)c2nn(CN3CCN(c4ccc(Cl)cc4)CC3)c(=S)o2)cc1 (configuration not stated)	76.6	22.8	28	35.8
